Reference: patent publication US10487045B2, “Adamantane derivative and use thereof” (TOHOKU UNIVERSITY, priority 2016, dated 2019)

Biological target: T1, Kir6.2 channel (Mus musculus, UniProt Q61743)
T1 construct: expressed in transfected cells; host or cells: Neuro2A (N2A) cells, transient transfection with pcDNA3.1-Kir6.2 (gift of Dr. Toru Ishizuka, Tohoku University)
T1 sequence (Q61743 1-390): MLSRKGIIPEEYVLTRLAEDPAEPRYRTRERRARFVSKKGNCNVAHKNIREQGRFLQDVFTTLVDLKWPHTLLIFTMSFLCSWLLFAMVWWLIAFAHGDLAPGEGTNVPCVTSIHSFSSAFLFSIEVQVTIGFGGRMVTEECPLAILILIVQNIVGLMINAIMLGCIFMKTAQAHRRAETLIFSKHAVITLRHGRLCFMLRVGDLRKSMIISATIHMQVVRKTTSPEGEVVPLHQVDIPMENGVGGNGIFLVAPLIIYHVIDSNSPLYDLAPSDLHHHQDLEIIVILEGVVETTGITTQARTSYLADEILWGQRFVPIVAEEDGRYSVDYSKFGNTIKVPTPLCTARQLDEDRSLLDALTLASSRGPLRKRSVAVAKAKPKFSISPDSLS
Assay: CaMKII activation in N2A cells overexpressing Kir6.2 channel (immunoblotting, anti-phosphorylated CaMKII antibody)
Type: cell-based
Settings: 10 nM, one hour, Kir6.2 channel overexpressing N2A cells; control without compound = 100%
Experimental: A plasmid vector having cDNA of Kir6.2 channel inserted therein: pcDNA3.1-Kir6.2, was obtained from Dr. Toru Ishizuka (Graduate School of Life Sciences, Tohoku University). The plasmid vector, pcDNA3.1-Kir6.2, was conditioned in accordance with the manual attached to GenElute HP Plasmid Maxiprep Kit (manufactured by Sigma-Aldrich). A culture solution (composition: DMEM culture solution 450 mL containing 50 ml of bovine serum and 100 units of penicillin/streptomycin) of Neuro2A cells (N2A cells, the National Instituted of Biomedical Innovation) cultured in DMEM culture solution (Gibco) was exchanged with Opti-Mem (Gibco)(containing Lipofectamine R2000 (1 μg/1 ml)) containing pcDNA3.1-Kir6.2 (1 μg/μl) conditioned above, and cultured for 5 hours to obtain N2A cells overexpressing Kir6.2 channel. Exchange with the DMEM culture solution was again performed and culture was carried out for two days. Thereafter, memantine (manufactured by Sigma-Aldrich) and the compound of the present invention (n=4 per group) were added in the culture solutions (DMEM, Gibco) so as to obtain a concentration of 10 nM based on the culture solution, and the culture solutions were allowed to stand still for one hour. Thereafter, Kir6.2 channel overexpressing N2A cells were collected and an SDS sample buffer was added to the N2A cells to prepare a suspension. The suspension was subjected to immunoblotting by use of an anti-phosphorylated CaMKII antibody (Fukunaga K et al., J. Biol. Chem. 1992, 267, 22527-22533) as a primary antibody and an anti-rabbit IgG antibody (manufactured by SouthernBiotech) as a secondary antibody (other conditions except the aforementioned antibodies were the same as those employed in ordinary immunoblotting), to investigate activation of CaMKII. As a result, in TP-009, TP-010, TP-011, TP-012, TP-014, TP-015, TP-048, TP-049, TP-050, TP-051, TP-052, TP-053, bands showing a reaction with the antibody against phosphorylated CaMKII were obtained. It was confirmed that activation of CaMKII is enhanced. In FIG. 1, the result of the case (control: c) where a test compound was not added is regarded as 100%. CaMKII activation of the cases containing memantine, TP-009, TP-010, TP-011, TP-012, TP-014, TP-015, TP-048, TP-049, TP-050, TP-051, TP-052, TP-053 (corresponding to M, 9, 10, 11, […], 15, 48, 49, 50, 51, 52 and 53, respectively) were shown in FIG. 1.

| activation of CaMKII (phosphorylated CaMKII bands) | Compound |
| --- | --- |
| enhanced | N[C@H](C(=O)O)[C@@H]1[C@@H]2C[C@H]3C[C@@](O)(C2)C[C@]1(O)C3 [TP-015, (S)-2-amino-2-((1R,2S,3R,5R,7S)-1,5-dihydroxyadamantan-2-yl)acetic acid] |
| enhanced | CCOC(=O)[C@@H](NC(C)=O)[C@@H]1[C@@H]2C[C@H]3C[C@@](Cl)(C2)C[C@]1(O)C3 [TP-010, ethyl (S)-2-acetamido-2-((1R,2S,3R,5R,7R)-5-chloro-1-hydroxyadamantan-2-yl)acetate] |
| enhanced | COC(=O)[C@@H](NC(=O)C(F)(F)F)[C@@H]1[C@@H]2C[C@H]3C[C@@](Cl)(C2)C[C@]1(OC(=O)C(F)(F)F)C3 [TP-012, (1R,2S,3R,5R,7R)-5-chloro-2-((S)-2-methoxy-2-oxo-1-(2,2,2-trifluoroacetamido)ethyl)adamantan-1-yl 2,2,2-trifluoroacetate] |
| enhanced | O=C(N[C@@H](c1cccnc1)[C@H]1[C@H]2C[C@@H]3C[C@](Cl)(C2)C[C@@]1(O)C3)C(F)(F)F [TP-051, N—((R)-((1S,2R,3S,5S,7S)-5-chloro-1-hydroxyadamantan-2-yl)(pyridin-3-yl)methyl)-2,2,2-trifluoroacetamide] |
| enhanced | CO[C@@]12C[C@H]3C[C@@H](C1)[C@H]([C@@H](NC(=O)C(F)(F)F)c1ccccc1)[C@](OC(=O)C(F)(F)F)(C3)C2 [TP-053, (1S,2R,3S,5S,7R)-5-methoxy-2-((R)-phenyl(2,2,2-trifluoroacetamido)methyl)adamantan-1-yl 2,2,2-trifluoroacetate] |
| enhanced | O=C(N[C@@H](c1ccccc1)[C@H]1[C@@H]2C[C@H]3C[C@@H](C2)C[C@]1(OC(=O)C(F)(F)F)C3)C(F)(F)F [TP-049, (1S,2R,3S,5R,7S)-2-((R)-phenyl(2,2,2-trifluoroacetamido)methyl)adamantan-1-yl 2,2,2-trifluoroacetate] |
| enhanced | CC(=O)O[C@@H](c1ccccc1)[C@@H]1[C@@H]2C[C@H]3C[C@@](N=[N+]=[N-])(C2)C[C@]1(O)C3 [TP-009, (R)-((1R,2S,3R,5R,7S)-5-azido-1-hydroxyadamantan-2-yl)(phenyl)methyl acetate] |
| enhanced | COCCO[C@@]12C[C@H]3C[C@@H](C1)[C@H]([C@@H](NC(=O)C(F)(F)F)c1ccccc1)[C@](OC(=O)C(F)(F)F)(C3)C2 [TP-050, (1S,2R,3S,5S,7R)-5-(2-methoxyethoxy)-2-((R)-phenyl(2,2,2-trifluoroacetamido)methyl)adamantan-1-yl 2,2,2-trifluoroacetate] |
| enhanced | O=C(N[C@@H](c1ccccc1)[C@H]1[C@@H]2C[C@H]3C[C@@H](C2)C[C@]1(O)C3)C(F)(F)F [TP-052, 2,2,2-trifluoro-N—((R)—((S,2R,3S,5R,7S)-1-hydroxyadamantan-2-yl)(phenyl)methyl) acetamide] |
| enhanced | CCOC(=O)[C@H](NC(C)=O)[C@@H]1[C@@H]2C[C@H]3C[C@@](Cl)(C2)C[C@]1(O)C3 [TP-011, ethyl (R)-2-acetamido-2-((1R,2S,3R,5R,7R)-5-chloro-1-hydroxyadamantan-2-yl)acetate] |
| enhanced | O=C(N[C@@H](c1ccccc1)[C@H]1[C@H]2C[C@@H]3C[C@](Cl)(C2)C[C@@]1(O)C3)C(F)(F)F [TP-048, N—((R)-((1S,2R,3S,5S,7S)-5-chloro-1-hydroxyadamantan-2-yl)(phenyl)methyl)-2,2,2-trifluoroacetamide] |
